Results taken from patent publication US7745450B2, “Pyrazolo[4,3-d]pyrimidines, processes for their preparation and methods for therapy” (Institute of Experimental Botany, priority 2002, dated 2010).
pIC50: −log10 of the molar value.

Experiments:
MMK1 protein kinase = MMK1 protein kinase (Vicia faba, UniProt A0AAV1B7B8); test: MMK1 protein kinase activity; type: biochemical
Experimental: Protein extraction and purification of pant CDK by binding to p13^suc1-beads or immunopurification with an antibody specific to the cdc2a-MS protein was carried out as described previously (Bögre et al. 1997, Plant Physiol. 113, 1997, 841-852). The MMK1 protein kinase was purified with a specific antibody from Vicia faba extracts as described by Bögre et al. 1997a, Plant Cell 9, 75-83). Protein kinase activity was measures as described above in Example 20. The quantification of radioactivity incorporated into histone H1 or myelin basic protein was undertaken using phosphoimager (FIG. 2).

[1] = system: CEM (human lymphoblastoid leukemia); test: In vitro cytotoxic activity, Calcein AM; type: cell-based; conditions: Homo sapiens, 72 h, three days
Experimental: We have been using the following cell lines: HELA (human cervical carcinoma), MCF7 (human breast adenocarcinoma), NIH 3T3 (mouse fibroblasts), HOS (human osteogenic sarcoma), HL 60 (human promyelocytic leukemia), G 361 (human malignant melanoma), K562 (human erythroleukemia), CEM (human lymphoblastoid leukemia). Tested drugs were added to the cell cultures in six different concentration and kept at 37° C. and 5% CO2 for three days. All cell lines were grown in DMEM medium (Gibco BRL) supplemented with 10% (v/v) fetal bovine serum and L-glutamine and maintained at 37° C. in a humidified atmosphere with 5% CO2. 10^4 cells were seeded into each well of 96 well plate, allowed to stabilize for at least 2 h and then tested compounds were added at various concentrations ranging from 200 to 0.2 μM in triplicates. Three days after drug addition Calcein AM solution (Molecular Probes) was added and let to enter the cells for 1 hour. Fluorescence of viable cells was quantified employing Fluoroskan Ascent (Microsystems).

B16 = test: In vitro cytotoxic activity, Calcein AM; type: cell-based; conditions: Mus musculus, B16, 72 h, three days

MMK1 protein kinase, sequence (A0AAV1B7B8 1-394): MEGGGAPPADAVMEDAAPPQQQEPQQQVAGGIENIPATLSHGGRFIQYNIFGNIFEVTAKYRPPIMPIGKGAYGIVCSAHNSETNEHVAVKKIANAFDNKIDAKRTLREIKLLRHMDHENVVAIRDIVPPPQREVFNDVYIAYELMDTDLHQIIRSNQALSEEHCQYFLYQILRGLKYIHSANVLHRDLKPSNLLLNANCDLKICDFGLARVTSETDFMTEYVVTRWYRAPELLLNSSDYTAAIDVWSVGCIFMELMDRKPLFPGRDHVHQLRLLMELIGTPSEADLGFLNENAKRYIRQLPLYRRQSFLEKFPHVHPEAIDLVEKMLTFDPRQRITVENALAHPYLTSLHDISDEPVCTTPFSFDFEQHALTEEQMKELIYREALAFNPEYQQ

| pIC50 (MMK1 protein kinase) | SMILES | GI50 [1] | GI50 (B16) |
| --- | --- | --- | --- |
| 5.82 | CC[C@H](CO)Nc1nc(N(C)CCc2ccc(O)c(O)c2)c2[nH]nc(C(C)C)c2n1 | 13.1 µM | 18.6 µM |
| 7.85 | CC[C@H](CO)Nc1nc(NCc2cccc(C)c2O)c2[nH]nc(C(C)C)c2n1 | 1.9 µM | 2.1 µM |
| 7.30 | CC(=O)c1ccccc1CNc1nc(N[C@@H](CO)C(C)C)nc2c(C(C)C)n[nH]c12 | 14.5 µM | 18.2 µM |
| 7.40 | CC[C@H](CO)Nc1nc(NCc2cccc(O)c2)c2[nH]nc(C(C)C)c2n1 | 10.5 µM | 12.4 µM |
| 6.29 | CC[C@H](CO)Nc1nc(N(C)Cc2ccc(O)c(O)c2)c2[nH]nc(C(C)C)c2n1 | 11.6 µM | 19.4 µM |
| 7.92 | CC[C@H](CO)Nc1nc(NCc2cccc(Cl)c2O)c2[nH]nc(C(C)C)c2n1 | 1.2 µM | 2.4 µM |
| 6.96 | CC[C@H](CO)Nc1nc(Nc2ccccc2)c2[nH]nc(C(C)C)c2n1 | 13.2 µM | 18.4 µM |
| 7.89 | CC[C@H](CO)Nc1nc(Nc2ccc(Cl)c(N)c2)c2[nH]nc(C(C)C)c2n1 | 4.7 µM | 7.5 µM |
| 7.52 | CC[C@H](CO)Nc1nc(Nc2ccc(O)c(C(=O)O)c2)c2[nH]nc(C(C)C)c2n1 | 18.4 µM | 25.8 µM |
| 6.40 | CC[C@H](CO)Nc1nc(NCc2cccc(OC(C)=O)c2)c2[nH]nc(C(C)C)c2n1 | 18.5 µM | 23.7 µM |
| 7.92 | CC(=O)Oc1ccccc1CNc1nc(N[C@@H](CO)C(C)C)nc2c(C(C)C)n[nH]c12 | 8.7 µM | 10.9 µM |
| 7.82 | CC(C)c1n[nH]c2c(Nc3cc(N)cc(Cl)c3)nc(N[C@@H](CO)C(C)C)nc12 | 9.5 µM | 14.5 µM |
| 5.96 | CC[C@H](CO)Nc1nc(NCc2ccc(O)c(O)c2)c2[nH]nc(C(C)C)c2n1 | 9.2 µM | 15.7 µM |
| 8.46 | CC[C@H](CO)Nc1nc(NCc2c(N)cccc2Cl)c2[nH]nc(C(C)C)c2n1 | 4.6 µM | 8.3 µM |
| 6.40 | CC[C@H](CO)Nc1nc(NCc2ccc(Cl)c(N)c2N)c2[nH]nc(C(C)C)c2n1 | 4.6 µM | 9.9 µM |
| 6.70 | CC[C@H](CO)Nc1nc(NCc2ccccc2OC(C)=O)c2[nH]nc(C(C)C)c2n1 | 13.8 µM | 19.3 µM |
| 7.92 | CC[C@H](CO)Nc1nc(NCc2cccc(OC)c2O)c2[nH]nc(C(C)C)c2n1 | 3.1 µM | 6.2 µM |
| 7.82 | CC[C@H](CO)Nc1nc(NCc2cc(O)c(Cl)cc2O)c2[nH]nc(C(C)C)c2n1 | 2.5 µM | 4.8 µM |
| 5.60 | Cc1n[nH]c2c(Nc3ccccc3)nc(NCCO)nc12 [2-hydroxyethylamino / anilino / methyl] | 10.2 µM | 12.4 µM |
| 8.30 | CC[C@H](CO)Nc1nc(NCc2ccc(OC)c(O)c2O)c2[nH]nc(C(C)C)c2n1 | 4.7 µM | 6.2 µM |
| 7.92 | CC[C@H](CO)Nc1nc(NCc2ccccc2O)c2[nH]nc(C(C)C)c2n1 | 7.8 µM | 9.3 µM |
| 6.82 | CC(C)c1n[nH]c2c(NC(CO)c3ccccc3)nc(NC(CO)C(C)C)nc12 (stereo not drawn) | 2.6 µM | 4.8 µM |
| 7.82 | CC[C@H](CO)Nc1nc(NCc2ccccc2C(C)=O)c2[nH]nc(C(C)C)c2n1 | 11.9 µM | 16.3 µM |

The remaining lines, values behind:

| SMILES | pIC50 (MMK1 protein kinase) | GI50 [1] | GI50 (B16) |
| --- | --- | --- | --- |
| Cc1n[nH]c2c(Nc3ccc(Cl)c(N)c3)nc(NCCO)nc12 | 6.62 | 5.7 µM | 6.4 µM |
| Cc1n[nH]c2c(NCc3cccc(Cl)c3O)nc(NCCO)nc12 | 6.42 | 1.5 µM | 2.1 µM |
| Cc1n[nH]c2c(Nc3ccc(Br)cc3)nc(NCCO)nc12 | 6.82 | 8.5 µM | 8.6 µM |
| Cc1n[nH]c2c(NCc3cccc(O)c3)nc(NCCO)nc12 | 6.08 | 9.4 µM | 10.2 µM |
| Cc1n[nH]c2c(Nc3ccc(C(=O)O)c(Cl)c3)nc(NCCO)nc12 | 6.80 | 8.9 µM | 9.2 µM |
| Cc1n[nH]c2c(Nc3ccc(O)c(C(=O)O)c3)nc(NCCO)nc12 | 6.15 | 12.4 µM | 15.8 µM |
| CC(=O)c1cccc(CNc2nc(N[C@@H](CO)C(C)C)nc3c(C(C)C)n[nH]c23)c1 | 8.30 | 8.6 µM | 9.4 µM |
| CC(C)c1n[nH]c2c(NCc3ccc(Cl)c(N)c3N)nc(N[C@@H](CO)C(C)C)nc12 | 7.40 | 8.2 µM | 12.4 µM |
| CC(C)c1n[nH]c2c(NCc3ccc(O)c(O)c3)nc(N[C@@H](CO)C(C)C)nc12 | 6.51 | 4.2 µM | 5.8 µM |
| COc1cccc(CNc2nc(N[C@@H](CO)C(C)C)nc3c(C(C)C)n[nH]c23)c1O | 7.82 | 9.7 µM | 9.1 µM |
| Cc1n[nH]c2c(NCc3ccc(Cl)c(N)c3)nc(NCCO)nc12 | 5.74 | 12.4 µM | 13.5 µM |
| Cc1n[nH]c2c(NCc3c(N)cccc3Cl)nc(NCCO)nc12 | 6.07 | 5.8 µM | 7.2 µM |
| COc1ccc(CNc2nc(NCCO)nc3c(C)n[nH]c23)c(O)c1O | 6.54 | 3.5 µM | 4.2 µM |
| COc1cccc(CNc2nc(NCCO)nc3c(C)n[nH]c23)c1O | 6.35 | 3.5 µM | 4.2 µM |
| Cc1n[nH]c2c(Nc3ccc(Cl)cc3)nc(NCCO)nc12 | 6.74 | 7.6 µM | 8.4 µM |
| Cc1n[nH]c2c(NCc3ccccc3O)nc(NCCO)nc12 | 6.39 | 5.6 µM | 8.2 µM |
| Cc1n[nH]c2c(NCc3ccc(O)c(O)c3)nc(NCCO)nc12 | 4.62 | 15.5 µM | 18.7 µM |
| Cc1n[nH]c2c(Nc3ccc(Cl)c(C(=O)O)c3)nc(NCCO)nc12 | 6.52 | 6.5 µM | 7.2 µM |
| Cc1cccc(CNc2nc(NCCO)nc3c(C)n[nH]c23)c1O | 6.47 | 2.8 µM | 3.1 µM |
| Cc1n[nH]c2c(NCc3cc(O)c(Cl)cc3O)nc(NCCO)nc12 | 6.42 | 1.5 µM | 2.8 µM |
| CC(=O)Oc1cccc(CNc2nc(NCCO)nc3c(C)n[nH]c23)c1 | 5.47 | 15.4 µM | 16.7 µM |
| CC(=O)c1ccccc1CNc1nc(NCCO)nc2c(C)n[nH]c12 | 6.40 | 10.8 µM | 9.3 µM |
